The values below come from patent US12604895B2, “Pesticidally active cyclic amine compounds” (SYNGENTA CROP PROTECTION AG, priority 2020, dated 2026).

Common to all, as to assay type: in vivo
For experiment [1], the system named is Tetranychus urticae (Two-Spotted Spider Mite). As to the kind of experiment: Example B5: Tetranychus urticae (Two-Spotted Spider Mite), feeding/contact activity. Particulars: foliar, 192 h, application rate of 200 ppm, mixed population (mobile stages) on sprayed bean leaf discs, 8 days after infestation. On the procedure:
Example B5: Tetranychus urticae (Two-Spotted Spider Mite): Feeding/Contact Activity
Bean leaf discs on agar in 24-well microtiter plates were sprayed with aqueous test solutions prepared from 10′000 ppm DMSO stock solutions. After drying the leaf discs were infested with a mite population of mixed ages. The samples were assessed for mortality on mixed population (mobile stages) 8 days after infestation.

In experiment [2] the test system is Euschistus heros (Neotropical Brown Stink Bug). As to the kind of experiment: Example B2: Euschistus heros (Neotropical Brown Stink Bug), sprayed soybean leaves. As to conditions: 120 h, application rate of 200 ppm, N2 nymphs on sprayed soybean leaves, 5 days after infestation, read-out: control in at least one of the two categories (mortality or growth inhibition). The procedure:
Example B2: Euschistus heros (Neotropical Brown Stink Bug)
Soybean leaves on agar in 24-well microtiter plates were sprayed with aqueous test solutions prepared from 10′000 ppm DMSO stock solutions. After drying the leaves were infested with N2 nymphs. The samples were assessed for mortality and growth inhibition in comparison to untreated samples 5 days after infestation.
The following compounds gave an effect of at least 80% control in at least one of the two categories (mortality or growth inhibition) at an application rate of 200 ppm: P2.1., P8.1

Experiment [3] relates to Diabrotica balteata (Corn Root Worm). As to the kind of experiment: Example B1: Diabrotica balteata (Corn Root Worm), sprayed maize sprouts. As to conditions: 96 h, application rate of 200 ppm, L2 larvae on sprayed maize sprouts, 4 days after infestation, read-out: control in at least one of the two categories (mortality or growth inhibition). On the procedure: Example B1: Diabrotica balteata (Corn Root Worm)
Maize sprouts placed onto an agar layer in 24-well microtiter plates were treated with aqueous test solutions prepared from 10′000 ppm DMSO stock solutions by spraying. After drying, the plates were infested with L2 larvae (6 to 10 per well). The samples were assessed for mortality and growth inhibition in comparison to untreated samples 4 days after infestation.
The following compounds gave an effect of at least 80% control in at least one of the two categories (mortality or growth inhibition) at an application rate of 200 ppm: P1.2, P2.1, P2.2, P2.5, P2-17, P3.4, P7.1, P8.1

Experiment [4] deals with Plutella xylostella (Diamond Back Moth). As to the kind of experiment: Example B3: Plutella xylostella (Diamond Back Moth), artificial diet. As to conditions: 192 h, application rate of 200 ppm, eggs, treated artificial diet, 8 days after infestation, read-out: control in at least one of the two categories (mortality or growth inhibition). The procedure: Example B3: Plutella xylostella (Diamond Back Moth)
24-well microtiter plates with artificial diet were treated with aqueous test solutions prepared from 10′000 ppm DMSO stock solutions by pipetting. After drying, Plutella eggs were pipetted through a plastic stencil onto a gel blotting paper and the plate was closed with it. The samples were assessed for mortality and growth inhibition in comparison to untreated samples 8 days after infestation. The following compounds gave an effect of at least 80% control in at least one of the two categories (mortality or growth inhibition) at an application rate of 200 ppm: P1.2, P1.15, P1.51, P2.1, P2.2, P2.5, P2.10, P2.15, P2.16, P5.1, P5.2, P5.3, P7.1, P8.1

For `Cc1nc(C2CCN(C(=O)c3cc(C#N)c(-c4ccc(C(F)(F)F)cc4)cc3C(F)(F)F)CC2)no1` [Compound P1.1, 5-[4-(5-Methyl-1,2,4-oxadiazol-3-yl)piperidine-1-carbonyl]-4-(trifluoromethyl)-2-[4-(trifluoromethyl)phenyl]benzonitrile], the mortality (usually the percentage killed) at 200 ppm in experiment [1] was ≥ 80%.

As for `CCOc1cc(-c2ccc(C(F)(F)F)cc2)c(C#N)cc1C(=O)N1CCC(CSCC)CC1` [Compound P1.46, 4-Ethoxy-5-[4-(ethylsulfanylmethyl)piperidine-1-carbonyl]-2-[4-(trifluoromethyl)phenyl]-benzonitrile], the mortality at 200 ppm in experiment [1] was ≥ 80%.

As for `N#Cc1cc(C(=O)N2CCN(c3ncc(Cl)cc3Cl)CC2)c(C(F)(F)F)cc1-c1ccc(C(F)(F)F)cc1` [Compound P2.1, 5-[4-(3,5-Dichloro-2-pyridyl)piperazine-1-carbonyl]-4-(trifluoromethyl)-2-[4-(trifluoromethyl)phenyl]benzonitrile], in experiment [1], the mortality at 200 ppm was ≥ 80%. For the same compound, the percent control (mortality or growth inhibition) at 200 ppm in experiment [2], in experiment [3] and in experiment [4] was ≥ 80% throughout.

As to `CCOc1cc(-c2ccc(C(F)(F)F)cc2)c(C#N)cc1C(=O)N1CCN(c2ncc(Cl)cc2Cl)CC1` [Compound P2.5, 5-[4-(3,5-Dichloro-2-pyridyl)piperazine-1-carbonyl]-4-ethoxy-2-[4-(trifluoromethyl)-phenyl]-benzonitrile], the mortality at 200 ppm in experiment [1] is ≥ 80%. The percent control (mortality or growth inhibition) at 200 ppm in experiment [3] and in experiment [4] was ≥ 80% each time.

For the compound `CCC[S+]([O-])CC1CN(C(=O)c2cc(C#N)c(-c3ccc(C(F)(F)F)cc3)cc2C(F)(F)F)C1` (stereo not shown) [Compound P3.7, 5-[3-(Propylsulfinylmethyl)azetidine-1-carbonyl]-4-(trifluoromethyl)-2-[4-(trifluoromethyl)phenyl]-benzonitrile], the mortality at 200 ppm in experiment [1] was ≥ 80%.

Turning to `CCCSCC1CN(C(=O)c2cc(C#N)c(-c3ccc(C(F)(F)F)cc3)cc2C(F)(F)F)C1` [Compound P3.9, 5-[3-(propylsulfanylmethyl)azetidine-1-carbonyl]-4-(trifluoromethyl)-2-[4-(trifluoromethyl)-phenyl]benzonitrile], the mortality at 200 ppm in experiment [1] is ≥ 80%.

Regarding `Cc1nc(C2CCN(C(=O)c3cc(C#N)c(-c4ccc(C(F)(F)F)cc4)c(C#N)c3C)CC2)no1` [Compound P6.1], the mortality at 200 ppm in experiment [1] is ≥ 80%.

`NC(=S)c1cc(C(=O)N2CCN(c3ncc(Cl)cc3Cl)CC2)c(C(F)(F)F)cc1-c1ccc(C(F)(F)F)cc1` [Compound P8.1, 5-[4-(3,5-Dichloro-2-pyridyl)piperazine-1-carbonyl]-4-(trifluoromethyl)-2-[4-(trifluoromethyl)phenyl]benzenecarbothioamide]: the mortality at 200 ppm in experiment [1] is ≥ 80%. In addition, the percent control (mortality or growth inhibition) at 200 ppm in experiment [2], in experiment [3] and in experiment [4] was ≥ 80% in each case.
